# Reference: patent US8871934B2, “Fluorene compound and pharmaceutical use thereof” (Japan Tobacco Inc., priority 2008, dated 2014)
# Like-named read-outs stand apart in the source and are kept apart here.
# Target: human PDHK2 (hPDHK2) (Homo sapiens (Human), UniProt Q15119)
# Test: Inhibitory action of PDHK activity in vitro (kinase reaction, residual PDH activity measured)
# Assay type: biochemical
# [1] = PDHK inhibitory activity, class symbol of IC50
# [2] = read-out: PDHK inhibitory activity IC50
SMILES,IC50 [1] [nM],IC50 [2] [nM],"IC50 (class symbol of IC50, read-out: PDHK inhibitory activity) [nM]"
Cn1cc(-c2cc(C(=O)N3CCC[C@H]3CO)cc3c2-c2ccccc2C3(O)C(F)(F)F)cn1 (stereo partly drawn) [compound 393],100 to 1000,176,–
Cn1cc(-c2cc(C(=O)N3CCC(CO)C3)cc3c2-c2ccccc2C3(O)C(F)(F)F)cn1 (stereo not drawn) [compound 394],< 100,58,–
O=C1CCCN1CCCOc1ccc2c(c1)C(O)(C(F)(F)F)c1ccccc1-2 (stereo not drawn) [compound 395],100 to 1000,699,–
O=C(COc1ccc2c(c1)C(O)(C(F)(F)F)c1ccccc1-2)N1CCC(O)CC1 (stereo not drawn) [compound 396],100 to 1000,627,–
O=C(COc1ccc2c(c1)C(O)(C(F)(F)F)c1ccccc1-2)N1CCC(CO)CC1 (stereo not drawn) [compound 397],100 to 1000,424,–
CC(=O)N(C)CCOc1cnc2c(c1)C(O)(C(F)(F)F)c1ccccc1-2 (stereo not drawn) [compound 398],100 to 1000,119,–
CN(CCOc1cnc2c(c1)C(O)(C(F)(F)F)c1ccccc1-2)C(=O)CO (stereo not drawn) [compound 399],100 to 1000,149,–
O=C(COc1ccc2c(c1)C(O)(C(F)(F)F)c1ccccc1-2)N(CCO)CCO (stereo not drawn) [compound 400],> 1000,7080,–
O=C1CCCCN1CCCOc1ccc2c(c1)C(O)(C(F)(F)F)c1ccccc1-2 (stereo not drawn) [compound 401],100 to 1000,554,–
O=C(O)Cc1ccc2c(c1)C(O)(C(F)(F)F)c1ccccc1-2 (stereo not drawn) [compound 402],> 1000,> 10000,–
NC(=O)Cc1ccc2c(c1)C(O)(C(F)(F)F)c1ccccc1-2 (stereo not drawn) [compound 403],> 1000,> 10000,–
O=C(O)CCCOc1cc(Br)c2c(c1)C(O)(C(F)(F)F)c1ccccc1-2 (stereo not drawn) [compound 404],100 to 1000,195,–
OCCc1ccc2c(c1)C(O)(C(F)(F)F)c1ccccc1-2 (stereo not drawn) [compound 405],> 1000,6380,–
OCCCCCOc1cc(-c2cncnc2)c2c(c1)C(O)(C(F)(F)F)c1ccccc1-2 (stereo not drawn) [compound 406],< 100,25,–
Cn1cc(-c2cc(OCCCCCO)cc3c2-c2ccccc2C3(O)C(F)(F)F)cn1 (stereo not drawn) [compound 407],< 100,31,–
CN(CCOc1cc(Cl)c2c(c1)C(O)(C(F)(F)F)c1ccccc1-2)S(C)(=O)=O (stereo not drawn) [compound 408],< 100,65,–
CN(CCOc1cc(Cl)c2c(c1)C(O)(C(F)(F)F)c1ccccc1-2)C(=O)CO (stereo not drawn) [compound 409],< 100,67,–
NC(=O)CCCOc1cc(Cl)c2c(c1)C(O)(C(F)(F)F)c1ccccc1-2 (stereo not drawn) [compound 410],100 to 1000,154,–
OCCn1cc(-c2cccc3c2-c2ccccc2C3(O)C(F)(F)F)cn1 (stereo not drawn) [compound 411],< 100,66,–
Cn1cc(-c2cc(OCCN3CCCC3=O)cc3c2-c2ccccc2C3(O)C(F)(F)F)cn1 (stereo not drawn) [compound 412],< 100,22,–
CC(Oc1ccc2c(c1)C(O)(C(F)(F)F)c1ccccc1-2)C(=O)O (stereo not drawn) [compound 413],> 1000,1230,–
Cn1cc(-c2cc(C(=O)N3CC3)cc3c2-c2ccccc2C3(O)C(F)(F)F)cn1 (stereo not drawn) [compound 414],< 100,32,–

SMILES,IC50 [1] [nM],IC50 [2] [nM],"IC50 (class symbol of IC50, read-out: PDHK inhibitory activity) [nM]"
CC(=O)NCc1ccc2c(c1)C(O)(C(F)(F)F)c1ccccc1-2 (stereo not drawn) [compound 415],> 1000,9190,–
O=C1CCCCN1CCOc1ccc2c(c1)C(O)(C(F)(F)F)c1ccccc1-2 (stereo not drawn) [compound 416],100 to 1000,104,–
CNCc1ccc2c(c1)C(O)(C(F)(F)F)c1ccccc1-2 (stereo not drawn) [compound 417],–,> 1000,> 1000
CC(=O)N(C)Cc1ccc2c(c1)C(O)(C(F)(F)F)c1ccccc1-2 (stereo not drawn) [compound 418],> 1000,6060,–
O=C1CCC(COc2ccc3c(c2)C(O)(C(F)(F)F)c2ccccc2-3)N1 (stereo not drawn) [compound 419],100 to 1000,504,–
CN1C(=O)CCC1COc1ccc2c(c1)C(O)(C(F)(F)F)c1ccccc1-2 (stereo not drawn) [compound 420],100 to 1000,225,–
O=C1CCC(COc2ccc3c(c2)C(O)(C(F)(F)F)c2ccccc2-3)N1CCCO (stereo not drawn) [compound 421],100 to 1000,233,–
CC(=O)N(C)CCOc1cc(-c2cncnc2)c2c(c1)C(O)(C(F)(F)F)c1ccccc1-2 (stereo not drawn) [compound 422],< 100,23,–
CC(=O)N(C)CCOc1cc(-c2cnn(C)c2)c2c(c1)C(O)(C(F)(F)F)c1ccccc1-2 (stereo not drawn) [compound 423],< 100,21,–
CN(CCOc1cc(-c2cncnc2)c2c(c1)C(O)(C(F)(F)F)c1ccccc1-2)C(=O)CO (stereo not drawn) [compound 424],< 100,23,–
CN(CCOc1cc(-c2cnn(C)c2)c2c(c1)C(O)(C(F)(F)F)c1ccccc1-2)C(=O)CO (stereo not drawn) [compound 425],< 100,21,–
Cn1cc(-c2cc(OCCCCO)cc3c2-c2ccccc2C3(O)C(F)(F)F)cn1 (stereo not drawn) [compound 426],< 100,24,–
CN(C)C(=O)CCCOc1cc(-c2cnn(C)c2)c2c(c1)C(O)(C(F)(F)F)c1ccccc1-2 (stereo not drawn) [compound 427],< 100,20,–
OCCCCOc1cc(-c2cncnc2)c2c(c1)C(O)(C(F)(F)F)c1ccccc1-2 (stereo not drawn) [compound 428],< 100,25,–
CN(C)C(=O)CCCOc1cc(-c2cncnc2)c2c(c1)C(O)(C(F)(F)F)c1ccccc1-2 (stereo not drawn) [compound 429],< 100,19,–
"O=C1CCCN1CCOc1cnc2c(c1)C(O)(C(F)(F)F)c1ccccc1-2 (stereo not drawn) [compound 430, 1-[2-(5-hydroxy-5-trifluoromethyl-5H-indeno[1,2-b]pyridin-3-yloxy)-ethyl]-pyrrolidin-2-one]",< 100,64,–
COCOCCN1C(=O)CCC1COc1ccc2c(c1)C(O)(C(F)(F)F)c1ccccc1-2 (stereo not drawn) [compound 431],100 to 1000,250,–
O=C1CCC(COc2ccc3c(c2)C(O)(C(F)(F)F)c2ccccc2-3)N1CCO (stereo not drawn) [compound 432],100 to 1000,247,–
Cn1cc(-c2cc(OCC(=O)O)cc3c2-c2ccccc2C3(O)C(F)(F)F)cn1 (stereo not drawn) [compound 433],100 to 1000,388,–
NC(=O)COc1cnc2c(c1)C(O)(C(F)(F)F)c1ccccc1-2 (stereo not drawn) [compound 434],100 to 1000,561,–
CC(=O)NCCOc1cc(-c2cnn(C)c2)c2c(c1)C(O)(C(F)(F)F)c1ccccc1-2 (stereo not drawn) [compound 435],< 100,39,–
OCCCn1cc(-c2cccc3c2-c2ccccc2C3(O)C(F)(F)F)cn1 (stereo not drawn) [compound 436],< 100,65,–

SMILES,IC50 [1] [nM],IC50 [2] [nM],"IC50 (class symbol of IC50, read-out: PDHK inhibitory activity) [nM]"
O=C(COc1cc(Br)c2c(c1)C(O)(C(F)(F)F)c1ccccc1-2)N1CCC1 (stereo not drawn) [compound 437],< 100,60,–
CNC(=O)COc1cc(Br)c2c(c1)C(O)(C(F)(F)F)c1ccccc1-2 (stereo not drawn) [compound 438],100 to 1000,112,–
Cn1cc(-c2cc(OCC(=O)N3CC(CO)C3)cc3c2-c2ccccc2C3(O)C(F)(F)F)cn1 (stereo not drawn) [compound 439],< 100,34,–
Cn1cc(-c2cc(OCC(=O)N3CCC(CO)CC3)cc3c2-c2ccccc2C3(O)C(F)(F)F)cn1 (stereo not drawn) [compound 440],< 100,32,–
Cn1cc(-c2cc(OCC(=O)N3CCC3)cc3c2-c2ccccc2C3(O)C(F)(F)F)cn1 (stereo not drawn) [compound 441],< 100,36,–
CNC(=O)COc1cc(-c2cnn(C)c2)c2c(c1)C(O)(C(F)(F)F)c1ccccc1-2 (stereo not drawn) [compound 442],< 100,40,–
CC(=O)N(CCOc1ccc2c(c1)C(O)(C(F)(F)F)c1ccccc1-2)CCC(=O)O (stereo not drawn) [compound 443],> 1000,1150,–
CN(CCOc1ccc2c(c1)C(O)(C(F)(F)F)c1ccccc1-2)CC(=O)O (stereo not drawn) [compound 444],> 1000,3930,–
O=C1CC[C@H](COc2ccc3c(c2)C(O)(C(F)(F)F)c2ccccc2-3)N1 (stereo partly drawn) [compound 445],100 to 1000,605,–
O=C1CC[C@@H](COc2ccc3c(c2)C(O)(C(F)(F)F)c2ccccc2-3)N1 (stereo partly drawn) [compound 446],100 to 1000,565,–
CN1C(=O)CC[C@@H]1COc1ccc2c(c1)C(O)(C(F)(F)F)c1ccccc1-2 (stereo partly drawn) [compound 447],100 to 1000,202,–
CN1C(=O)CC[C@H]1COc1ccc2c(c1)C(O)(C(F)(F)F)c1ccccc1-2 (stereo partly drawn) [compound 448],100 to 1000,381,–
Cn1cc(-c2cc(OCCCC(=O)O)cc3c2-c2ccccc2C3(O)C(F)(F)F)cn1 (stereo not drawn) [compound 449],< 100,47,–
O=C1CCC(CO)N1CCOc1ccc2c(c1)C(O)(C(F)(F)F)c1ccccc1-2 (stereo not drawn) [compound 450],100 to 1000,442,–
Cn1cc(-c2cc(OCCCO)cc3c2-c2ccccc2C3(O)C(F)(F)F)cn1 (stereo not drawn) [compound 453],< 100,28,–
Cn1cc(-c2cc(OCCC(=O)O)cc3c2-c2ccccc2C3(O)C(F)(F)F)cn1 (stereo not drawn) [compound 454],< 100,64,–
CN(C)C(=O)CCOc1cc(-c2cnn(C)c2)c2c(c1)C(O)(C(F)(F)F)c1ccccc1-2 (stereo not drawn) [compound 455],< 100,26,–
Cn1cc(-c2cc(OCCO)cc3c2-c2ccccc2C3(O)C(F)(F)F)cn1 (stereo not drawn) [compound 456],< 100,45,–
CN(C)C(=O)COc1cc(-c2cnn(C)c2)c2c(c1)C(O)(C(F)(F)F)c1ccccc1-2 (stereo not drawn) [compound 457],< 100,30,–
COc1cc(-c2cnn(CCO)c2)c2c(c1)C(O)(C(F)(F)F)c1ccccc1-2 (stereo not drawn) [compound 458],< 100,39,–
O=C1OCCN1CCOc1ccc2c(c1)C(O)(C(F)(F)F)c1ccccc1-2 (stereo not drawn) [compound 459],100 to 1000,185,–
OCCn1cc(-c2cc(Cl)cc3c2-c2ccccc2C3(O)C(F)(F)F)cn1 (stereo not drawn) [compound 460],< 100,30,–
